Where no end group is shown, it is not given here.
Columns and labels:
siRNA = test: Heparin displacement assay (complex stability); type: physicochemical; settings: peptide/siRNA complexes at MR30 in MQ water, heparin at different concentrations, 15 min RT, SYBR Gold fluorescence, n = 3 in duplicates
Procedure: For the heparin displacement assay, peptide/siRNA complexes were formed in MQ water at MR30. Fifty microliters of complexes was then transferred to each well of a black 96‐well plate and mixed with 100 μL of 2X SYBR Gold dye (Thermo Fisher Scientific, USA), incubated, and then 50 μL of heparin (Sigma‐Aldrich, USA) solution with different concentrations was added. After 15 min at RT, the fluorescence was measured by Synergy Mx Microplate Reader (BioTek, USA) (ex = 495 nm, em = 537 nm) to determine the amount of accessible siRNA in the complexes. The data was normalized to the fluorescence of free siRNA (defined as 100%) and are expressed as a percentage of accessible siRNA. The results are shown as mean ± SEM of n = 3 in duplicates.

[1] = DLS size, PDI and zeta potential of peptide/siRNA complexes; type: physicochemical
Procedure: The physicochemical properties (nanoparticle size, polydispersity index [PDI], and zeta potential) of peptide/siLuc complexes were measured by DLS (dynamic light scattering) using the Zetasizer Nano ZS apparatus (Malvern Instruments, UK).
The size and zeta potential of peptide/siLuc particles were measured at MR30 for hPep1, hPep2, and Ctrl peptide. For hPep3, measurements were also taken at different MRs (5–35). The complexes were formulated in 50 μL at a 2 μM final siRNA concentration for size measurement. The average diameter was obtained from three technical replicates, and one measurement was set to five runs (run duration 8 s) in disposable ZEN0040 cuvettes (Malvern Instruments, UK).
To measure the zeta potential, the complexes were diluted eight times in 10 mM HEPES 7.4 buffer. The zeta potential was obtained from three technical measurements in disposable DTS1070 cuvettes (Malvern Instruments, UK) with the number of runs set to automatic. The results are shown as an average of three separate experiments (mean ± SEM). All measurements were performed at 22°C.

[2] = CD spectroscopy, secondary structure estimation; type: physicochemical; settings: CD in MQ water, 100 μM peptide, 25°C, Reed's estimation; for proportion of alpha helical structure: 1-mm cuvette
Procedure: CD spectra were recorded on a Jasco J‐1500 CD spectrometer (Jasco, Japan) at 25°C at a concentration of 100 μM. Peptides were dissolved in MQ water and measured using 1‐mm pathlength quartz cuvette. The secondary structure estimates were calculated on the “Protein Secondary Structure Estimation” plugin in the Spectra Manager 2.13 software by using Reed's estimation.

[3] = cited from earlier work
From the text: Given that the differences in the peptide hydrophobicity and amphipathicity come from the number of carbons introduced by the alanine and alkenyl‐alanine side chains: three carbons for Ctrl peptide, 13 and 17 for hPep1 an ...

bovine red blood cells = test: Hemolysis (erythrocyte leakage) assay; type: cell-based; settings: peptide alone 10 μM, 2% RBCs in HBG pH 5.5, 37°C, 1 h, absorbance 450 nm, n = 3 in triplicates
Procedure: The hemolysis experiments were carried out with bovine red blood cells (RBCs) (Håtunalab, Sweden). The cells were washed three times with HBG 7.4 and then diluted to a final concentration of 2% RBCs in HBG with noted pH. Ten microliters of peptides was added to 190 μL of cells in PCR plates and shaken at 37°C for 1 h. Then the cells were spun down at 500 × g, and 100 μL of supernatant was transferred to transparent 96‐well tissue culture plates. The absorbance of released hemoglobin was measured at 450 nm on a plate reader (Tecan Sunrise, Switzerland). As a positive control, 10% Triton X‐100 was used, while HBG served as a negative control. The percentage of hemolysis was calculated by the formula: hemolysis (%) = [(AS − AN)/(AP − AN)] × 100, where AS is the absorbance for the sample, AP for positive control, and AN for negative control. The results are shown as mean ± SEM of n = 3, done in triplicates.

[4] = DLS, peptide/siLuc complexes at MR30, 2 μM siRNA, 22°C, mean of n = 3

| Substance | stability of the NPs against heparin (siRNA release) (siRNA) | PDI [1, 4] | proportion of alpha helical structure [2] | random structure estimate [2] | order of hydrophobicity of the peptides [3] | hemolytic (lytic) activity (bovine red blood cells) | NP size (hydrodynamic diameter) [1, 4] | zeta potential of the complexes ([1]; all tested MRs (5-35)) | zeta potential ([1]; peptide/siLuc complexes at MR30, diluted eight times in 10 mM HEPES 7.4, 22°C, mean of n = 3) |
| --- | --- | --- | --- | --- | --- | --- | --- | --- | --- |
| H‐LAKLAKA{R8}AKLLKA{S5}AKAL‐NH2 [hPep1, C-terminally amidated amphipathic CPP with one octenyl- and one pentenyl-alanine] | Ctrl < hPep1 < hPep2 < hPep3 | 0.265 | 15% | > 60% | hPep1 < hPep2 < hPep3 | – | – | – | – |
| LAKLAKAAAKLLKAAAKAL-NH2 [Ctrl] | Ctrl < hPep1 < hPep2 < hPep3 | – | zero | > 60% | – | almost no activity | ~ 2000 nm | stayed negative at all tested MRs | −23.7 mV |

Reference: PMC12414742, “Amphipathic Octenyl‐Alanine Modified Peptides Mediate Effective siRNA Delivery” (Journal of Peptide Science, 2025)
